Measurements: the supplement of paper PMC10307832

Columns and labels:
Assay in all cases: relative viability (nuclei count vs DMSO), 5 days (fraction); higher = more cells survive
[1] = compound: CCN1C(=O)C2=CC(=C(N=C2N(C1=O)C3CC3)N)C(=O)N + CC(C)C[C@H](NC(=O)[C@H](Cc1ccccc1)NC(=O)c1cnccn1)B(O)O [Bortezomib] (partner 0.002 µM)
Procedure, shortened: (§1)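 For relative viability, nuclei counts in treated wells were divided by those in vehicle wells. Lung cancer cell lines had been pin-tool dosed in 1536-well plates the day after seeding and cultured for 5 days, then fixed and stained in one step (final 0.05% Triton X-100, 1% formaldehyde, 1 ug/ml Hoechst) and imaged at 4×. Doses were one drug alone or a fixed anchor-drug dose plus five library-drug doses (not always all listed) in √10 steps, and values are duplicate-plate medians.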

[2] = compound: CCN1C(=O)C2=CC(=C(N=C2N(C1=O)C3CC3)N)C(=O)N + CC1(C)CCC(c2ccc(Cl)cc2)=C(CN2CCN(c3ccc(C(=O)NS(=O)(=O)c4ccc(N[C@H](CCN5CCOCC5)CSc5ccccc5)c(S(=O)(=O)C(F)(F)F)c4)cc3)CC2)C1 [Navitoclax] (partner 0.5 µM)
Procedure, shortened: as §1

[3] = compound: CCN1C(=O)C2=CC(=C(N=C2N(C1=O)C3CC3)N)C(=O)N + COc1cccc2cc(-c3nc([C@H]4CC[C@H](C(=O)O)CC4)n4ncnc(N)c34)[nH]c12 [OSI-027] (partner 0.5 µM)
Procedure, shortened: as §1

[4] = compound: CCN1C(=O)C2=CC(=C(N=C2N(C1=O)C3CC3)N)C(=O)N + CS(=O)(=O)CCNCc1ccc(-c2ccc3ncnc(Nc4ccc(OCc5cccc(F)c5)c(Cl)c4)c3c2)o1 [Lapatinib] (partner 2 µM)
Procedure, shortened: as §1

[5] = compound: CCN1C(=O)C2=CC(=C(N=C2N(C1=O)C3CC3)N)C(=O)N + CS(=O)(=O)N1CCN(Cc2cc3nc(-c4cccc5[nH]ncc45)nc(N4CCOCC4)c3s2)CC1 [Pictilisib] (partner 1 µM)
Procedure, shortened: as §1

Row | Cell Line | relative viability ([1]; first compound 0.8 µM) | relative viability ([1]; first compound 2.53 µM) | relative viability ([1]; first compound 8 µM) | relative viability ([2]; first compound 0.253 µM) | relative viability ([2]; first compound 0.8 µM) | relative viability ([2]; first compound 2.53 µM) | relative viability ([2]; first compound 8 µM) | relative viability ([3]; first compound 0.253 µM) | relative viability ([3]; first compound 0.8 µM) | relative viability ([3]; first compound 2.53 µM) | relative viability ([3]; first compound 8 µM) | relative viability ([4]; first compound 0.253 µM) | relative viability ([4]; first compound 0.8 µM) | relative viability ([4]; first compound 2.53 µM) | relative viability ([4]; first compound 8 µM) | relative viability ([5]; first compound 0.253 µM) | relative viability ([5]; first compound 0.8 µM) | relative viability ([5]; first compound 2.53 µM) | relative viability ([5]; first compound 8 µM) | relative viability ([1]; first compound 0.253 µM)
1 | SK-LU-1 | 1.36 | 1.29 | 1.29 | 0.797 | 0.855 | 0.977 | 0.865 | 0.414 | 0.381 | 0.353 | 0.369 | 0.879 | 0.879 | 0.897 | 1.04 | 0.559 | 0.581 | 0.717 | 0.614 | –
2 | NCI-H1975 | 0.423 | 0.413 | 0.439 | 1.31 | 1.06 | 1.19 | 1.02 | 0.809 | 0.697 | 0.604 | 0.536 | 0.841 | 0.844 | 0.868 | 0.91 | 0.276 | 0.293 | 0.306 | 0.306 | 0.378
3 | COR-L23 | 0.944 | 1.12 | 0.95 | 1.05 | 0.939 | 1.03 | 1.04 | 0.883 | 0.819 | 0.743 | 0.867 | 0.927 | 1.03 | 0.745 | 1.04 | 0.814 | 0.751 | 0.729 | 0.947 | 1
4 | CAL-12T | – | 1.09 | 1.08 | 1.14 | 1.1 | 1.06 | 1.2 | 0.689 | 0.478 | 0.543 | 0.512 | 0.528 | – | 0.716 | 0.859 | 0.431 | – | 0.437 | 0.541 | 1.11
5 | NCI-H596 | 0.807 | 1.11 | 1.01 | 1.07 | 0.904 | 0.999 | 1.17 | 0.735 | 0.7 | 0.843 | 0.679 | 1.07 | 1.02 | 1.09 | 1.06 | 0.449 | 0.36 | 0.454 | 0.403 | –
6 | NCI-H2126 | 1.14 | 1.16 | 1.05 | 0.86 | 0.884 | 0.736 | 0.775 | 0.598 | 0.541 | 0.819 | 0.747 | 0.787 | 0.778 | 0.761 | 0.749 | 0.509 | 0.511 | 0.507 | 0.474 | 1.14
